# Reference: patent US9566290B2, “Boron-containing small molecules” (Anacor Pharmaceuticals, Inc., priority 2005, dated 2017)
# “And” between values parts separate entries of the source, which are not always exact repeats. Equal values may be shown once. Read-outs that look alike come from different tables or passages of the source.
# Columns and labels:
# [1] = test system: Saccharomyces cerevisiae strain ATCC 201388; experiment: MIC (NCCLS M27, YPD or synthetic defined media), haploid parental strain; format: cell-based; details: Saccharomyces cerevisiae, read-out: MIC
# Protocol: (§1) The haploid Saccharomyces cerevisiae strain ATCC 201388 was used in the selection of C10 resistant mutants. Spontaneous and EMS-induced resistant mutants were isolated from YPD agar plates containing 4×, 8×, 16×MIC of C10. All minimal inhibitory concentrations (MIC) were determined using NCCLS protocol M27 with the exception of using YPD or synthetic defined media. All yeast and molecular genetic manipulations were essentially performed as described by Guthrie C., et al., Methods in Enzymology, 350: Part B, (2002).
# (§2) The minimal inhibitory concentration (MIC) was essentially performed following the NCCLS guidelines outlined in the M27 protocol with the exception of using YPD or synthetic defined media (SDM).
# [2] = test system: S. cerevisiae C10 resistant mutants (CDC60 editing domain mutations); experiment: MIC (NCCLS M27), spontaneous and EMS induced C10 resistant mutants; format: cell-based, Saccharomyces cerevisiae; details: for MIC: Saccharomyces cerevisiae
# Protocol: as §1
# (§3) Resistant mutants appeared after 2 d incubation at 30° C. Frequency of resistance was determined by dividing the number of resistant mutants by the total number of cells plated as determined by plating dilutions of the overnight culture on YPD plates.
# A 2.5 mL of the overnight culture, which was grown in YPD media, was centrifuged at 700×g for 5 minutes. The cell pellet was resuspended in 10 mL 50 mM potassium phosphate buffer, pH 7.0. The cell suspension was centrifuged again and the cell pellet was resuspended in phosphate buffer to obtain a cell density of 5×10^7 cells/mL as determined by counting the cells using a Petroff Hausser Counting Chamber (Horsham, Pa. USA). The cell suspension was shaken with 300 μL of EMS (Alfa Aesar, Ward Hill, Mass., USA) for 30 min. at 30° C. The mutagenesis was stopped by adding 10% (w/v) sodium thiosulfate (Sigma-Aldrich, St. Louis, Mo., USA), and the cells were pelleted by centrifugation at 700×g for 5 min. and resuspended in 1 mL sterile H2O. This was repeated once more before the cells were plated on YPD agar plates containing 1.6 μg/mL of C10.
# as §2
# [3] = test system: Trichophyton rubrum (T. rubrum); experiment: TurChub zone of inhibition assay through full thickness human nail; format: cell-based; details: 40 μL/cm^2 per day over five days
# Protocol: The aim of the current study was to assess and compare the perungual absorption of C10 in a simple vehicle using MedPharm's TurChub® model (see http://www.medpharm.co.uk; specificaly http://www.medpharm.co.uk/downloads/Skin%20and%20nail%2dec%202003.pdf viewed Feb. 14, 2006). in a full scale experiment. Six replicates involving C10 were conducted and Formulations Y (8% ciclopirox w/w in commercial lacquer) and Z (Loceryl, 5% amorolfine w/v in commercial lacquer) were used as the reference formulations.
# A dose of 40 μL/cm^2 of the test compound C10 in 50:50 propylene glycol:ethyl acetate was applied to a full thickness nail sample each day over a total duration of five days. Both the reference formulations were also applied at the same dose.
# Placebo, test item C10 in vehicle and the reference formulations Y and Z were tested for their inhibition of Trichophyton rubrum (T. rubrum) growth after penetration through a full thickness human nail using a zone of inhibition measurement.
# [4] = Stability at room temperature in water and octanol; format: physicochemical
# Protocol: C10 (10 μL of 5000 μg/mL) was added both to 0.5 mL n-octanol and 0.5 mL water in triplicate. Samples were mixed. At 0 h and 24 h samples were stored at ca. −20° C. Twenty five L of sample was used for analysis.
# For the octanol sample, 25 μL of ethanol, 25 μL of water and 300 μL of acetonitrile containing the internal standard was added. For the water sample, 25 μL of ethanol, 25 μL of octanol and 300 μL of acetonitrile containing the internal standard [60 mL of acetonitrile add 6 μL of PNP (1000 μg/mL)] was added. For the calibrators 25 μL of octanol, 25 μL of water and 300 μL of acetonitrile containing the internal standard was added. The sample was vortexed for 10 seconds. Two hundred μL of the organic layer were transferred into a clean deactivated autosampler vial.
# A 1/concentration weighted linear regression was used for the quantitation of C10. All integration were performed with peak areas using Analyst version 1.3, Applied Biosystems. For C10, peak area ratios analyte to internal standard PNP were used for all quantitation.
# [5] = test system: S. cerevisiae diploid (mutant strain/ATCC200901); experiment: MIC of diploids from yeast mating experiment; format: cell-based, Saccharomyces cerevisiae
# Protocol: as §2
# The haploid mutants derived from S. cerevisiae ATCC201388 were mixed with S. cerevisiae ATCC 200901, and were incubated on YPD agar plates at 30° C. for 4 h. The cell mixture was streaked out on synthetic defined media agar (BD, NJ USA) without the amino acids lysine and methionine, which are selective for diploids.
# [6] = test system: S. cerevisiae strain ATCC201388; experiment: Frequency of spontaneous resistance; format: cell-based, Saccharomyces cerevisiae; details: spontaneous mutants, at 4×MIC
# Protocol: as §3
smiles,measurement,setting,value
"OB1OCc2cc(F)ccc21 [C10, 5-fluorobenzo[c][1,2]oxaborol-1(3H)-ol]",MIC,"[1]; ATCC201388, Table 1, haploid strain ATCC201388",0.5 µg/mL
same,MIC,"[1]; ATCC201388, Table 2, ATCC201388",0.5 µg/mL
same,increase in resistance (MIC) of resistant mutants over wildtype,[2]; 11 C10 resistant mutants,8-64 fold
same,increased resistance over wildtype in the minimal inhibitory concentration test,[2]; 23 C10 resistant mutants (Example 41),8-64 fold
same,MIC,"[2]; Table 1, mutant (A), CDC60 N415D",4 µg/mL
same,MIC,"[2]; Table 1, mutant (B), CDC60 R316I",16 µg/mL
same,MIC,"[2]; Table 1, mutant (C), CDC60 C326F",16 µg/mL
same,MIC,"[2]; Table 1, mutant (D), CDC60 G405V",32 µg/mL
same,MIC,"[2]; Table 1, mutant (E), CDC60 C326R",16 µg/mL
same,MIC,"[2]; Table 1, mutant (F), CDC60 D487G",32 µg/mL
same,MIC,"[2]; Table 1, mutant (G), CDC60 L315V",32 µg/mL
same,MIC,"[2]; Table 1, mutant (H), CDC60 T314M",32 µg/mL
same,MIC,"[2]; Table 1, mutant (I), CDC60 S416L",32 µg/mL
same,MIC,"[2]; Table 1, mutant (J), CDC60 D487N",32 µg/mL
same,MIC,"[2]; Table 1, mutant (K), CDC60 T319I",32 µg/mL
same,MIC,"[2]; Table 2, C10 resistant mutant (C)",16 µg/mL
same,MIC,"[2]; Table 2, C10 resistant mutant (G)",16 µg/mL
same,MIC,"[2]; Table 2, C10 resistant mutant (H)",16 µg/mL
same,"zone of inhibition, result in words",[3]; full thickness nail,superior results vs. the commercial reference formulations Y and Z
same,Zones of inhibition,"[3]; C10 10% w/v solution, second experiment (FIG. 7), six cells",74% and 86% and 100% and 82% and 84%
same,"stability in pure water and octanol, in words","[4]; 24 h, without continuous mixing",stable over 24 h
same,Percent Remaining 24 h versus 0 g,[4]; Octanol,93%
same,Mean,"[4]; Octanol, 0 h",115 µg/mL
same,Mean,"[4]; Octanol, 24 h",107 µg/mL
same,Percent Remaining 24 h versus 0 g,[4]; Water,115%
same,Mean,"[4]; Water, 0 h",82.5 µg/mL
same,Mean,"[4]; Water, 24 h",95.0 µg/mL
same,MIC,"[5]; Saccharomyces cerevisiae, ATCC200901",32 µg/mL
same,MIC,"[5]; Saccharomyces cerevisiae, ATCC 200901 / ATCC 201388",0.5 µg/mL
same,MIC,[5]; diploid (G)/ATCC200901,32 µg/mL
same,MIC,[5]; diploid (H)/ATCC200901,32 µg/mL
same,MIC of diploids from C10 mutants versus diploid from parental strain,[5]; three mutants mated with ATCC 200901,64 fold
same,frequency of resistance,[6],1.2×10^−7
